Test results from article PMC12797170, “Potent Competitive Inhibitors of Ecto-5′-nucleotidase (CD73) based on 6‑(Het)aryl-7-deazapurine Ribonucleoside 5′‑O‑Bisphosphonates” (ACS Pharmacology & Translational Science, 2025).
Converted amounts (≈) assume the structure as drawn. Read-outs that look alike come from different tables or passages of the source.

What was measured:
in vitro [1] = conditions: mouse, plasma
[2] = Kinetic solubility in PBS; type: physicochemical; conditions: phosphate-buffered saline, pH 7.4, aqueous buffer, kinetic from dmso stock
In short: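 DMSO stocks diluted into PBS pH 7.4 to 100 μM and shaken 2 h at room temperature in duplicate, then filtered by centrifugation. Filtrates diluted 1:99 in 50% acetonitrile. Quantified by Echo-MS against calibration standards spanning 0.05–4 μM.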

in vitro [3] = conditions: human, plasma
[4] = Plasma protein binding, equilibrium dialysis, human plasma; type: in vitro ADME; conditions: undiluted plasma
[5] = Plasma protein binding, mouse plasma; type: in vitro ADME; conditions: mouse, plasma
[6] = biological target: T1, recombinant human CD73 (hCD73) (Homo sapiens, UniProt P21589); test: CD73 activity assay on recombinant human CD73; type: biochemical; conditions: ΔGexp = RT ln Ki
T1 sequence (P21589 27-574): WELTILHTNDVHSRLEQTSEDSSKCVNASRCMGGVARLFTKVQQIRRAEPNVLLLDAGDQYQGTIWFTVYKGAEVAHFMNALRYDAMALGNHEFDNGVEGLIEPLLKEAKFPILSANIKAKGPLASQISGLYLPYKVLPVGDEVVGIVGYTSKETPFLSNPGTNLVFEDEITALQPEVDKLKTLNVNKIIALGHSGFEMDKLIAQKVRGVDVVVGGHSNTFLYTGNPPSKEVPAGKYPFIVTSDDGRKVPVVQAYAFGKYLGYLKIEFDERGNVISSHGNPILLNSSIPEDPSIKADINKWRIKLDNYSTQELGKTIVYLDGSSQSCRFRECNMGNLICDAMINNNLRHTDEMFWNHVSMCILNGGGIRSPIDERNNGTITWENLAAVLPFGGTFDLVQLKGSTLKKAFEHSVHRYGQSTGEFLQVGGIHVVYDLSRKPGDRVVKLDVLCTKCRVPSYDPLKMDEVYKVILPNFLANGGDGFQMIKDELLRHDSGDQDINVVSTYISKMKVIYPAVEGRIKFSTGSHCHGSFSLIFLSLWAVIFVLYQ

[7] = In vivo pharmacokinetic study, intravenous; parameters: species or system male CD-1 mice; conditions: for t1/2 (half-life) / half-life: footnote: t1/2 stability in plasma, text: half-life in mouse PK
Protocol: The pharmacokinetic study was performed by Bienta (Enamine Biology Services) using male CD-1 mice (3 animals, 9 weeks old, body weight ranging from 29.2 to 33.7 g) following intravenous administration. Levels of the test compound were determined by LC-MS/MS in blood plasma over time (seven sampling time points: 5, 15, 30, 60, 120, 240, and 480 min) after a single dose.
Animal treatment and samples preparation were conducted by the Animal Laboratory personnel at Enamine/Bienta.

CCRF-CEM = test: In vitro cytotoxic activity; type: cell-based; conditions: Homo sapiens
Protocol: (§1) All the compounds were also tested for their in vitro cytotoxic activity on a small panel of four cancer cell lines (CCRF-CEM, HepG2, HeLa S3, HL-60) and nonmalignant human dermal fibroblasts (NHDF).

HL-60 = test: In vitro cytotoxic activity; type: cell-based; conditions: Homo sapiens
Protocol: as §1

HepG2 = test: In vitro cytotoxic activity; type: cell-based; conditions: Homo sapiens
Protocol: as §1

[8] = test system: nonmalignant human dermal fibroblasts (NHDF); test: In vitro cytotoxic activity; type: cell-based
Protocol: as §1

HeLa S3 = test: In vitro cytotoxic activity; type: cell-based; conditions: Homo sapiens
Protocol: as §1

[9] = Microsomal stability assay, mouse liver microsomes; type: in vitro ADME; conditions: for Mics (m) comp remaining 60 min: 10 μM; for microsomal CLint at 10 µM: pooled liver microsomes, pH 7.4, read-out: Mics (m) CLint
[10] = Microsomal stability assay, human liver microsomes; type: in vitro ADME; conditions: for Mics (hu) comp remaining 60 min: 10 μM; for microsomal CLint at 10 µM: pooled liver microsomes, pH 7.4, read-out: Mics (hu) CLint
[11] = Tables 1 and 3, human plasma as printed in footnote, read-out: fup, fraction unbound in human plasma
[12] = human plasma protein binding, read-out: PPB (hu) (converted)
[13] = mouse plasma protein binding, read-out: PPB (m) (converted)
[14] = in vivo PK in mice, unit not given
[15] = male, CD-1, mouse, plasma, iv, 1 mg/kg, intravenous
[16] = mouse, plasma, 1 mg/kg, male CD-1 mice, intravenous, single dose, read-out: Cl (obs), observed clearance

Structure (SMILES)	half-life at 10 µM (in vitro [1]) [h]	solubility at 2 h [2] [µM]	half-life at 10 µM (in vitro [3]) [h]	fraction unbound at 4 h, 100 µM [4, 11]	fraction unbound at 4 h, 100 µM [4, 12]	fraction unbound at 4 h, 100 µM [5, 13]	dG_exp, experimental binding free energy [6]	half-life [7, 15] [h]	clearance [7, 16] [L/h/kg]	Mics (m) comp remaining 60 min [9] [%]	microsomal CLint at 10 µM [9] [µL/min/mg]	Mics (hu) comp remaining 60 min [10] [%]	microsomal CLint at 10 µM [10] [µL/min/mg]	IC50 (CCRF-CEM) [µM]	IC50 (HL-60) [µM]	IC50 (HepG2) [µM]	IC50 [8] [µM]	IC50 (HeLa S3) [µM]	further results
O=P(O)(O)CP(=O)(O)OC[C@H]1O[C@@H](n2ccc3c(-c4cc5ccccc5o4)ncnc32)[C@H](O)[C@@H]1O [4A.8]	> 2	98 (≈ 51.5 µg/mL)	> 2	0.37	0.019	0.371	–13.5 kcal/mol	0.15	0.66	–	–	–	–	> 10	> 10	> 10	> 10	> 10	t1/2 (half-life) ([7]; intravenous): 8.5 min; clearance [7, 14]: high clearance
O=P(O)(O)CP(=O)(O)OC[C@H]1O[C@@H](n2ccc3c(-c4cccc5ccccc45)ncnc32)[C@H](O)[C@@H]1O [4A.6]	> 2	62 (≈ 33.2 µg/mL)	> 2	0.63	0.086	0.626	–14.4 kcal/mol	2.83	–	–	–	–	–	> 10	> 10	> 10	> 10	> 10	clearance ([7]; male, CD-1, mouse, plasma, iv, 1 mg/kg, in vivo PK in mice, unit inferred, read-out: clearance): 0.084 L/h/kg
O=P(O)(O)CP(=O)(O)OC[C@H]1O[C@@H](n2ccc3c(-c4ccsc4)ncnc32)[C@H](O)[C@@H]1O [4A.4]	> 2	90 (≈ 44.2 µg/mL)	> 2	0.82	0.125	0.726	–13.2 kcal/mol	0.0833	0.72	–	–	–	–	9.7	3.4	> 10	> 10	> 10	t1/2 (half-life) ([7]; intravenous): 4.5 min; clearance [7, 14]: high clearance
O=P(O)(O)CP(=O)(O)OC[C@H]1O[C@@H](n2ccc3c(-c4cnc5ccccc5c4)ncnc32)[C@H](O)[C@@H]1O [4A.20]	> 2	> 100	> 2	–	0.054	0.536	–12.8 kcal/mol	–	–	110	< 1	88	2	> 10	> 10	> 10	> 10	> 10	–
O=P(O)(O)CP(=O)(O)OC[C@H]1O[C@@H](n2ccc3c(-c4cccc5c4oc4ccccc45)ncnc32)[C@H](O)[C@@H]1O [4A.10]	> 2	> 100	> 2	0.13	0.004	0.135	–12.9 kcal/mol	2.38	0.21	–	–	–	–	> 10	9.5	> 10	> 10	> 10	clearance [7, 14]: moderate clearance

Continued, in another order:

half-life at 10 µM (in vitro [1]) [h]	solubility at 2 h [2] [µM]	half-life at 10 µM (in vitro [3]) [h]	fraction unbound at 4 h, 100 µM [4, 11]	fraction unbound at 4 h, 100 µM [4, 12]	fraction unbound at 4 h, 100 µM [5, 13]	dG_exp, experimental binding free energy [6]	half-life [7, 15] [h]	clearance [7, 16] [L/h/kg]	Mics (m) comp remaining 60 min [9] [%]	microsomal CLint at 10 µM [9] [µL/min/mg]	Mics (hu) comp remaining 60 min [10] [%]	microsomal CLint at 10 µM [10] [µL/min/mg]	Structure (SMILES)	IC50 (CCRF-CEM) [µM]	IC50 (HL-60) [µM]	IC50 (HepG2) [µM]	IC50 [8] [µM]	IC50 (HeLa S3) [µM]	further results
> 2	86 (≈ 46.4 µg/mL)	> 2	–	0.026	0.302	–14.7 kcal/mol	0.25	0.444	103	< 1	95	2	Cc1nc(-c2cc3ccccc3o2)c2ccn([C@@H]3O[C@H](COP(=O)(O)CP(=O)(O)O)[C@@H](O)[C@H]3O)c2n1 [18E.8]	> 10	> 10	> 10	> 10	> 10	fraction unbound at 4 h, 100 µM ([5]; Tables 2 and 4, mouse plasma, read-out: fup, fraction unbound in mouse plasma): 0.3
> 2	88 (≈ 48.8 µg/mL)	> 2	–	0.157	0.445	–13.9 kcal/mol	–	–	100	< 1	101	< 1	Nc1nc(-c2cccc3c2CCCC3)c2ccn([C@@H]3O[C@H](COP(=O)(O)CP(=O)(O)O)[C@@H](O)[C@H]3O)c2n1 [11C.12]	> 10	> 10	> 10	> 10	> 10	–
> 2	> 100	> 2	–	0.054	0.737	–13.1 kcal/mol	–	–	79	8	95	3	O=P(O)(O)CP(=O)(O)OC[C@H]1O[C@@H](n2ccc3c(-c4ccc5cnccc5c4)ncnc32)[C@H](O)[C@@H]1O [4A.21]	> 10	5.9	> 10	> 10	> 10	–
> 2	84 (≈ 50.4 µg/mL)	> 2	–	≤ 0.01	0.088	–15.4 kcal/mol	–	–	103	< 2	106	< 2	COc1ccc2cc(-c3nc(Cl)nc4c3ccn4[C@@H]3O[C@H](COP(=O)(O)CP(=O)(O)O)[C@@H](O)[C@H]3O)ccc2c1 [7B.35]	> 10	> 10	> 10	> 10	> 10	–
> 2	> 100	> 2	–	≤ 0.01	≤ 0.01	–14.1 kcal/mol	–	–	134	< 2	147	< 2	O=P(O)(O)CP(=O)(O)OC[C@H]1O[C@@H](n2ccc3c(-c4ccc5cc(OCc6ccccc6)ccc5c4)nc(Cl)nc32)[C@H](O)[C@@H]1O [7B.31]	> 10	> 10	> 10	> 10	> 10	–
> 2	85 (≈ 47 µg/mL)	> 2	–	0.024	0.183	–14.2 kcal/mol	–	–	105	< 1	112	< 1	O=P(O)(O)CP(=O)(O)OC[C@H]1O[C@@H](n2ccc3c(-c4ccc5ccccc5c4)nc(F)nc32)[C@H](O)[C@@H]1O [14D.7]	> 10	> 10	> 10	> 10	> 10	–
